Laboratory results as given in patent US20220050096A1, “ANALYTE-SENSITIVE PROBES AND CONTACT LENS FOR DIAGNOSIS OF OCULAR PATHOLOGIES” (University Of Maryland, Baltimore, priority 2020, published 2022).
pKd: −log10 of the molar value. “And” between values parts separate entries of the source, which are not always exact repeats. Equal values may be shown once. Read-outs that look alike come from different tables or passages of the source.

What was measured:
[1] = Sodium binding affinity (mid-point) of SG in buffer; conditions: read-out: Na^+ binding constant / binding affinity (mid-point)
Procedure: Fluorescence Spectroscopic Measurements. Fluorescence intensities and intensity decays were measured using a Varian™ Eclipse 4 spectrofluorometer and a FluoTime300 instrument from PicoQuant™ (Berlin, Germany) and analyzed with the EasyTau™ software. The excitation source was a 473 nm laser diode with a repetition rate of 40 MHZ and a pulse width less than 100 ps. In other embodiments, the excitation source for SG-PL was at 495 nm from a Solea™ supercontinuum laser (PicoQuant™, Germany) and a 375 nm laser diode (PDL 375, PicoQuant™), a repetition rate of 40 MHz, and a pulse width less than 100 ps. Some intensity and lifetime measurements for SG-PL (as indicated) were performed using Alba V confocal fluorescence lifetime microscopy, FLIM (ISS, Urbana, Ill.), with excitation source of a 473 nm laser diode with a repetition rate of 40 MHz and a pulse width near 250 ps.
Sodium Binding Affinity. The sodium affinity of the labeled lenses can be described in terms of the dissociation constant. The dissociation reaction for the probe complexed with Na+ can be written as
P—Na^+↔P+Na^+ (equation 4)
where P is the free probe with no bound sodium in the dissociation constant KD is given. The ratio of sodium free and sodium bound probe is given by
The binding affinity is given as the mid-point (MP) of the ion-dependent response where the spectral change is 50% complete. […]

[2] = cited from earlier work; for Kd: read-out: K (mM), binding constant

In the case of `COc1cc(N2CCOCCOCCN(c3cc(OC)c(NC(=O)c4ccc(-c5c6cc(Cl)c(=O)cc-6oc6cc([O-])c(Cl)cc56)c(C(=O)[O-])c4)cc3OC)CCOCC2)c(OC)cc1NC(=O)c1ccc(-c2c3cc(Cl)c(=O)cc-3oc3cc([O-])c(Cl)cc23)c(C(=O)[O-])c1.C[N+](C)(C)C.C[N+](C)(C)C.C[N+](C)(C)C.C[N+](C)(C)C` [SG], the pKd [1] is given as ~2.00 and ~2.19, the “Lifetime (ns), cation-bound form” value ([2]; cation-bound form (in parentheses)) is given as 2.38 ns and the “Lifetime (ns), free form” value ([2]; free form) is given as 3.34 ns. For the same compound, the Kd ([2]; listed as Na Green) was 6 mM, the Kd ([2]; listed as Sodium Green) was about 5 mM and the Kd [2] was 6 to 10 mM.
